Experiments:
[1] = molecular target: T1, VEGF Receptor (KDR) (Homo sapiens, UniProt P35968); assay: Inhibition of VEGF receptor (KDR) tyrosine kinase activity; format: biochemical
T1 construct: as in the cited Wood et al. 2000 method
Method: The compounds of the present invention are therefore very effective dual inhibitors of EGF- and VEGF-receptor family members. For inhibition of KDR and Flt-1 and inhibition of growth factor-induced proliferation of HUVECS see J. Wood et al., Cancer Res. 60, 2178-2189 (2000). The compounds of formula I inhibit e.g. the KDR tyrosine kinase activity with an IC50 of from about 1 nM to about 1 μM, especially from about 5 nM to about 0.5 μM.
(§1) Inhibition of the tyrosine kinase Activity of EGF-R (HER-1), ErbB-2 (HER-2) and VEGF Receptor (KDR)
(§2) The inhibition tests are carried out as described above.

[2] = molecular target: T2, EGF-R (HER-1) (Homo sapiens, UniProt P00533); assay: Inhibition of EGF-R (HER-1) tyrosine kinase activity; format: biochemical; conditions: recombinant intracellular domain of the EGF-receptor
T2 construct: using the recombinant intracellular domain of the EGF-receptor [EGF-R ICD
T2 sequence (P00533 669-1210 limits assumed): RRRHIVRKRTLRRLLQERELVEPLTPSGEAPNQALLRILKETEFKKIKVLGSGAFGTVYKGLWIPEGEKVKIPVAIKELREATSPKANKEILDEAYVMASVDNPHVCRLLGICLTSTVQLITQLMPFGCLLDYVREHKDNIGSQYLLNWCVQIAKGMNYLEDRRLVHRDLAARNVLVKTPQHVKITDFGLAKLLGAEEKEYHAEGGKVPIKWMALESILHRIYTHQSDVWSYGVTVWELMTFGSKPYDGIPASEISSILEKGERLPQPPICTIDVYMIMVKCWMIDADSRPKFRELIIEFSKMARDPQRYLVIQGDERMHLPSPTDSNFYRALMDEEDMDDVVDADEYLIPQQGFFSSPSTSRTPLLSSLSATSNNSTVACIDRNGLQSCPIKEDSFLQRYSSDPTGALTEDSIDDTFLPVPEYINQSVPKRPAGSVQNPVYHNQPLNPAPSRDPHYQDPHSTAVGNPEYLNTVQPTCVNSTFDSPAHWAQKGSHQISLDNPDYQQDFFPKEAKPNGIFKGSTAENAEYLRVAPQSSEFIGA
Method: J. Biochem. 207, 265-275 (1992)]. Compared with the control without inhibitor, the compounds of formula I inhibit the enzyme activity by 50% (IC50), for example in a concentration of from 0.0005 to 0.5 μM, especially from 0.001 to 0.1 μM.
as §1, §2

[3] = molecular target: ErbB-2 (HER-2) (Homo sapiens, UniProt P04626); assay: Inhibition of ErbB-2 (HER-2) tyrosine kinase activity; format: biochemical
Chain of ErbB-2 (HER-2) (P04626 23-1255): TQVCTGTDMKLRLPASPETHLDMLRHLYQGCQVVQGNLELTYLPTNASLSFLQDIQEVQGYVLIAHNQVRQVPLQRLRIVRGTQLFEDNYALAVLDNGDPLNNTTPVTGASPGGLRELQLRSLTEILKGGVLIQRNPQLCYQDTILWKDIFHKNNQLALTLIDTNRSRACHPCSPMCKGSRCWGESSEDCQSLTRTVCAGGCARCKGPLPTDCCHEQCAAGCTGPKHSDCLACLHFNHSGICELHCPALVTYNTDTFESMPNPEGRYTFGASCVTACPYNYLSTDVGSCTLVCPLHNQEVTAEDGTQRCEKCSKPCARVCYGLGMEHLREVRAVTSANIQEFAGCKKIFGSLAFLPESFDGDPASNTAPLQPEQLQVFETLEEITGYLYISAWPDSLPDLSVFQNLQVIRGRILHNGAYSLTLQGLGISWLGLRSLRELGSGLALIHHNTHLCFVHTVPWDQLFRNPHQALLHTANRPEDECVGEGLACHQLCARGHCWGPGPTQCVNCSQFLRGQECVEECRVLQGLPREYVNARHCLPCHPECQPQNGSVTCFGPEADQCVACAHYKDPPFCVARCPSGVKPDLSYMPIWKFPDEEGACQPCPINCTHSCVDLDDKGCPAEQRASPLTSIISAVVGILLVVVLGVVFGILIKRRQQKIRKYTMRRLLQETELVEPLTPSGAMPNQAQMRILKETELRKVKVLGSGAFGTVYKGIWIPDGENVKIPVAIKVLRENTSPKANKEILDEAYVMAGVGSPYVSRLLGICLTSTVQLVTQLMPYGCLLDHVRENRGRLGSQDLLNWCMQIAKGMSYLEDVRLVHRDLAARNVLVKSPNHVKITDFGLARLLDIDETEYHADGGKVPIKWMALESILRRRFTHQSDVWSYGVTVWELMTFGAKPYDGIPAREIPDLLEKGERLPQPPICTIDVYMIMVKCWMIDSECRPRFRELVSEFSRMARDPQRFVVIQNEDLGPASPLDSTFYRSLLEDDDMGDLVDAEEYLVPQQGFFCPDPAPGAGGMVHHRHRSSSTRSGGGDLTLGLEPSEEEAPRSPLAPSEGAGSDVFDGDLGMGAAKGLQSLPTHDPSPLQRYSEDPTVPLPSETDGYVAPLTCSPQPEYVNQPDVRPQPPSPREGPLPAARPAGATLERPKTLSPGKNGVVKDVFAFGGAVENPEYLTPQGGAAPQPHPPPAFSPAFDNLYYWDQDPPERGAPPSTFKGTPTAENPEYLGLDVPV
Method: The inhibitory activity (IC50) is approximately in the range of 0.001 to 0.5 μM. The inhibition of ErbB2 tyrosine kinase (HER-2) can be determined, for example, analogously to the method used for EGF-R protein tyrosine kinase [see C. House et al., Europ. J. Biochem. 140. 363-367 (1984)]. The ErbB-2 kinase can be isolated, and its activity determined, by means of protocols known per se, for example in accordance with T. Akiyama et al., Science 232 1644 (1986).
as §1, §2

T1 sequence (P35968 834-1162 limits assumed): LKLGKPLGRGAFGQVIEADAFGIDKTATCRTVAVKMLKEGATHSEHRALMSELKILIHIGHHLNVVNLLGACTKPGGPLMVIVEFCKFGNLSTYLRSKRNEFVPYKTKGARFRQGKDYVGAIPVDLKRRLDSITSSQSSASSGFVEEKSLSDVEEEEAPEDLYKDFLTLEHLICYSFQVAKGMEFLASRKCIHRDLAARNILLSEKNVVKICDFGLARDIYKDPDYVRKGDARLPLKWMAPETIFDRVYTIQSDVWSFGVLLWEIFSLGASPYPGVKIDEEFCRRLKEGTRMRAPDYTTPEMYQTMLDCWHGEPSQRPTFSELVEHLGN

Row | SMILES | IC50 [1] [nM] | IC50 [2] [nM] | melting point [°C] | IC50 [3] [nM]
1 | CN1CCN(c2ccc(Nc3nccc(-c4c[nH]nc4-c4ccc(Cl)cc4)n3)cc2)CC1 [Example 1, {4-[3-(4-Chloro-phenyl)1H-pyrazol-4yl]-pyrimidin-2-yl}-[4-(4-methyl-piperazin-1-yl)-phenyl]-amine] | 10 | 18 | 282 to 284 | 23
2 | CN(C)CCOc1ccc(Nc2nccc(-c3c[nH]nc3-c3ccc(Cl)cc3)n2)cc1 [Example 2, {4-[3-(4-Chloro-phenyl)-1H-pyrazol-4-yl]-pyrimidin-2-yl}-[4-(2-dimethyl-amino-ethoxy)-phenyl]-amine] | 21 | 22 | – | 19
3 | Cc1cccc(-c2n[nH]cc2-c2ccnc(Nc3ccc(N4CCN(C)CC4)cc3)n2)c1 [Example 18, [4-(4-Methyl-piperazin-1yl)-phenyl]-[4-(3-m-tolyl-1H-pyrazol-4-yl)-pyrimidin-2-yl]-amine] | 4 | 21 | – | 13
4 | Cc1cccc(-c2n[nH]cc2-c2ccnc(Nc3ccc(OCCN(C)C)cc3)n2)c1 [Example 20, [4-(2-Dimethylamino-ethoxy)-phenyl]-[4-(3-m-tolyl-1H-pyrazol-4-yl)-pyrimidin-2-yl]-amine] | 6 | 27 | – | 15
5 | CN(C)CCOc1ccc(Nc2nccc(-c3c[nH]nc3-c3ccc(Cl)c(Cl)c3)n2)cc1 [Example 21, {4-[3-(3,4-Dichloro-phenyl)-1H-pyrazol-4-yl]-pyrimidin-2-yl}-[4-(2-dimethylamino-ethoxy)-phenyl]-amine] | 15 | 29 | – | 16
6 | COc1cc(Nc2nccc(-c3c[nH]nc3-c3ccc4c(c3)OCO4)n2)cc(OC)c1OC [Example 46, [4-(3-Benzo[1,3]dioxol-5-yl-1H-pyrazol-4-yl)-pyrimidin-2-yl]-(3,4,5-trimethoxy-phenyl)-amine] | 3 | 28 | – | 6
7 | Cc1ccc(-c2n[nH]cc2-c2ccnc(Nc3ccc(CN4CCN(C)CC4)cc3)n2)cc1 [Example 60, [4-(4-Methyl-piperazin-1-ylmethyl)-phenyl]-[4-(3-p-tolyl-1H-pyrazol-4-yl)-pyrimidin-2-yl]-amine] | 10 | 20 | 250 | 44
8 | CN1CCN(c2ccc(Nc3nccc(-c4cn(C)nc4-c4ccc(Cl)cc4)n3)cc2)CC1 [Example 91, {4-[3-(4-Chloro-phenyl)1-methyl-1H-pyrazol-4yl]-pyrimidin-2-yl}-[4-(4-methyl-piperazin-1-yl)-phenyl]-amine] | 28 | 18 | – | 42
9 | CCN1CCN(Cc2ccc(Nc3nccc(-c4c[nH]nc4-c4ccc(C)cc4)n3)cc2)CC1 [Example 101, [4-(4-Ethyl-piperazin-1-ylmethyl)-phenyl]-[4-(3-p-tolyl-1H-pyrazol-4)-pyrimidin-2-yl]-amine] | 4 | 13 | – | 28
10 | CCN1CCN(c2ccc(Nc3nccc(-c4c[nH]nc4-c4ccc(C)cc4)n3)cc2)CC1 [Example 109, [4-(4-Ethyl-piperazin-1-yl)-phenyl]-[4-(3-p-tolyl-1H-pyrazol-4yl)-pyrimidin-2-yl]-amine] | 3 | 16 | 280 | 34
11 | CN1CCC(COc2cccc(Nc3nccc(-c4cn(C)nc4-c4ccc(Cl)cc4)n3)c2)CC1 [Example 112, {4-[3-(4-Chloro-phenyl)-1-methyl-1H-pyrazol-4-yl]-pyrimidin-2-yl}-[3-(1-methyl-piperidin-4-ylmethoxy)-phenyl]-amine] | – | – | 138 | –
12 | COc1cc(OC)cc(-c2n[nH]cc2-c2ccnc(Nc3cccc(S(N)(=O)=O)c3)n2)c1 [Example 113, 3-{4-[3-(3,5-Dimethoxy-phenyl)-1H-pyrazol-4-yl]-pyrimidin-2-ylamino}-benzenesulfonamide] | – | – | 257 | –
13 | CCN1CCN(Cc2ccc(Nc3nccc(-c4c[nH]nc4-c4ccc(Cl)cc4)n3)cc2)CC1 [Example 114, {4-[3-(4-Chloro-phenyl)-1H-pyrazol-4yl]-pyrimidin-2-yl}-[4-(4-ethyl-piperazin-1-ylmethyl)-phenyl]-amine] | – | – | 247 | –
14 | CCN1CCN(Cc2ccc(Nc3nccc(-c4c[nH]nc4-c4ccccc4)n3)cc2)CC1 [Example 115, [4-(4-Ethyl-piperazin-1-ylmethyl)-phenyl]-[4-(3-phenyl-1H-pyrazol-4-yl)-pyrimidin-2-yl]-amine] | – | – | 227 | –
15 | Clc1ccc(-c2n[nH]cc2-c2ccnc(Nc3ccc(-c4nnn[nH]4)cc3)n2)cc1 [Example 116, {4-[3-(4-Chloro-phenyl)-1H-pyrazol-4-yl]-pyrimidin-2-yl}-[4-(1H-tetrazol-5-yl)-phenyl]-amine] | 21 | 9 | 369 | < 10
16 | CCN1CCN(Cc2ccc(Nc3nccc(-c4cn(C)nc4-c4ccc(C)cc4)n3)cc2)CC1 [Example 117, [4-(4-Ethyl-piperazin-1-ylmethyl)-phenyl]-[4-(1-methyl-3-p-tolyl-1H-pyrazol-4-yl)-pyrimidin-2-yl]-amine] | – | – | 88 | –
17 | CCN1CCN(Cc2ccc(Nc3nccc(-c4cnn(C)c4-c4ccc(C)cc4)n3)cc2)CC1 [Example 118, [4-(4-Ethyl-piperazin-1-ylmethyl)-phenyl]-[4-(1-methyl-5-p-tolyl-1H-pyrazol-4-yl)-pyrimidin-2-yl]-amine] | – | – | 82 | –
18 | CC1(C)CC(NCc2ccc(Nc3nccc(-c4c[nH]nc4-c4ccccc4)n3)cc2)CC(C)(C)N1 [Example 120, [4(3-Phenyl-1H-pyrazol-4-yl)-pyrimidin-2-yl]-{4[(2,2,6,6-tetramethyl-piperidin-4-ylamino)-methyl]-phenyl}-amine] | – | – | 213 | –
19 | CCN1CCN(c2ccc(Nc3nccc(-c4c[nH]nc4-c4ccc(Cl)cc4)n3)cc2)CC1 [Example 121, {4-[3-(4-Chloro-phenyl)-1H-pyrazol-4yl]-pyrimidin-2-yl}-[4-(4-ethyl-piperazin-1-yl)-phenyl]-amine] | – | – | 268 | –
20 | Clc1ccc(-c2n[nH]cc2-c2ccnc(Nc3ccc(N4CCNCC4)cc3)n2)cc1 [Example 122, {4-[3-(4-Chloro-phenyl)-1H-pyrazol-4yl]-pyrimidin-2-yl}-(4piperazin-1-yl-phenyl)-amine] | – | – | 214 | –
21 | Cc1ccc(-c2n[nH]cc2-c2ccnc(Nc3cccc(OCC4CCN(C)CC4)c3)n2)cc1 [Example 124, [3-(1-Methyl-piperidin-4-ylmethoxy)-phenyl]-[4-(3-p-tolyl-1H-pyrazol-4yl)-pyrimidin-2-yl]-amine] | 5 | 3 | – | 17

From patent publication US7691855B2, “Phenyl-[4-(3-phenyl-1h-pyrazol-4-yl)-pyrimidin-2-yl)-amine derivatives” (Novartis AG, priority 2002, dated 2010)
